One assay concerns whole blood. Conditions: ADP final concentration 8.3 μM or collagen 10 μg/mL, mean±standard deviation, cited from earlier work; for M A (maximum amplitude): in mm (unit assumed).
Assay [1] relates to blood. As to the kind of experiment: Thromboelastograph of blood with no antithrombotic agent administered, with heparin or argatroban with or without ADP or collagen added. The settings on record: for change of the R value lengthened by anticoagulant when ADP or collagen is added: blood coagulation function normal, no antithrombotic agent administered, heparin or argatroban present. The class given is cell-based, human. An excerpt: (§1) The present invention is described below based on embodiments. The thromboelastograph will be described first. A thromboelastograph is an apparatus that tracks the process of blood coagulation by the clot elasticity in whole blood. […] The reaction time R representing the time when the range of the clot elasticity value reaches 2 mm, the coagulation time K representing the time when the range of the clot elasticity value reaches 20 mm, the maximum amplitude MA of the range of the clot elasticity values, the angle ANG formed by a tangent drawn on the graph of the changes in clot elasticity, and the like are obtained as numerical values based on the measurement chart, as shown in FIG. 1. The measurement procedure itself merely comprises placing the blood in a cuvette and beginning measurement. A C-TEG3000T machine made by Haemoscope of the United States was used as the thromboelastograph in the examples below.
(§2) The test method using the thromboelastograph will be described next in itemized form. 1) A thromboelastograph is used in measurement. The thromboelastograph used is one in which the measurement part has two or more channels, and the amount of fluid measured is 0.36 mL. 2) The blood of the patient being administered an antithrombotic agent is sampled by a blood sampling tube for coagulation testing. […] 3) 0.02 mL of 0.2 M calcium chloride and 0.32 mL of blood from the blood sampling tube are mixed with 0.01 mL of anticoagulant and 0.01 mL of physiological saline in the first measurement part (first channel) of the thromboelastograph. The calcium chloride neutralizes the citric acid admixed in the blood sampling tube, and coagulation begins. 4) 0.02 mL of 0.2 M calcium chloride and 0.32 mL of blood from the blood sampling tube are mixed with 0.01 mL of anticoagulant and 0.01 mL of adenosine diphosphate (ADP) or collagen in the second measurement part (second channel) of the thromboelastograph. The adenosine diphosphate (ADP) used here is 0.2 μmol of commercial reagent powder dissolved in 0.67 mL of physiological saline. Similarly, the collagen is 1 mg/mL stock solution diluted to a 36% solution by physiological saline. 5) The first channel and second channel are measured simultaneously by the thromboelastograph, and the R values measured on the thromboelastograph are compared. […] It is necessary in this case to strengthen the antithrombotic effect by measures such as increasing the dose or changing the antithrombotic agent being administered. The platelets in the second channel are believed to be readily activated by the ADP or collagen, and blood coagulation is accelerated. […] It is believed in this case that the platelets in the second channel are not readily activated by the ADP or collagen, and blood coagulation is not accelerated.
(§3) In the following examples and comparative examples, the addition of 0.02 mL of physiological saline of 0.2 M calcium chloride to the sampled blood and the addition of […] to the system without ADP or collagen added are common to all examples and are omitted from the explanations of each example and comparative example.
An example of the administration of sulpyrine will be described next. […] The measurement was the same as in Example 1. Blood with 0.1 U/mL of heparin or 0.31 μg/mL of argatroban added and blood with 8.3 μM of ADP or 10 μg/mL of collagen added to these were measured simultaneously by using a thromboelastograph.
An example of the administration of Pletaal will be described next. […] The amounts of heparin, argatroban, ADP, and collagen added were the same as in Example 2.
As a comparative example, blood obtained when no thrombotic agent (*1) had been administered was measured by thromboelastograph. Specifically, systems of heparin, ADP, and collagen added to blood that contained no thrombotic agent and, similarly, systems of argatroban, ADP, and collagen added to blood that contained no thrombotic agent were measured using a thromboelastograph.

The subject of assay [2] is blood. The settings on record: Hep 0.1 U/mL, ARG 0.3 μg/mL, Col 10 μg/mL, ADP 8.3 μM/L, cited from earlier work.
Assay [3] concerns blood sampled from a patient being administered an antithrombotic agent. As to the kind of experiment: Thromboelastograph of blood sampled after administration of an antithrombotic agent, with anticoagulant with or without ADP or collagen added. The class given is in vivo, human. The settings on record: for R value: ADP 8.3 μM, collagen 10 μg/mL.
Text: as §1, §2, §3
An example of the administration of aspirin as an antithrombotic agent will be described. First, 81 mg/day of aspirin was administered for three days. Blood sampled one hour after oral administration of 40.5 mg of aspirin thereafter was measured using a thromboelastograph. Specifically, thromboelastographic measurements were simultaneously carried out on the sampled blood itself, the same blood with 0.1 U/mL of heparin or 0.31 μg/mL of argatroban added, and blood obtained by adding 8.3 μM of ADP or 10 μg/mL of collagen to these.
Also, 660 mg/day of aspirin was administered for three days, and the blood sampled one hour after oral administration of 330 mg thereafter was measured in the same manner by using a thromboelastograph. […]

Setting [4] is: Comparative Example, blood with no antithrombotic agent administered.
Where [5] appears, read: no Pletaal administered (Example 3), heparin 0.1 U/mL, argatroban 0.31 μg/mL, ADP 8.3 μM, collagen 10 μg/mL.
Setting [6] is: no sulpyrine administered (Example 2), heparin 0.1 U/mL, argatroban 0.31 μg/mL, ADP 8.3 μM, collagen 10 μg/mL.

Where two headings read alike, the source gives them in different places.

Take `Nc1ncnc2c1ncn2[C@@H]1O[C@H](COP(=O)(O)OP(=O)(O)O)[C@@H](O)[C@H]1O` [ADP, adenosine diphosphate]: the “M A (maximum amplitude)” value in the assay on whole blood is reported as 57.9 ± 2.6. Besides, the “change of the R value lengthened by anticoagulant when ADP or collagen is added” value in the assay with blood [1] was “shortens significantly”.

Take `CC1CNc2c(cccc2S(=O)(=O)N[C@@H](CCCNC(=N)N)C(=O)N2CC[C@@H](C)C[C@@H]2C(=O)O)C1` (stereo partly shown) [ARG, argatroban]: the “A N G (rapidity of clot formation)” value in the assay on blood [2] is given as 44.5 ± 14.6. Moreover, the figures for the K in the assay with blood [2] and with blood [2] (listed as argatroban) were 9.8 ± 5.1 and “lengthen”, respectively. Besides, the values for the R in the assay with blood [2] and in the assay with blood [2] (listed as argatroban) were 29.8 ± 11.5 and “lengthen”, respectively. The R value with blood [1] (setting [4]) is on record as 29.8 ± 11.5; in the assay on blood [1] (Comparative Example, blood with no antithrombotic agent administered, listed as argatroban) it was “lengthens”; in the assay with blood [1] (setting [5]), 29.7 ± 10.5; in the assay on blood [1] (setting [6]), 29.8 ± 9.5.

With `CC(=O)Oc1ccccc1C(=O)O` [ASP, aspirin], the “assessment of efficacy of the administered dose (R value shortened by ADP and collagen or not)” value in assay [3] (81 mg/day of aspirin for three days) is given as “insufficient to function effectively”; in assay [3] (660 mg/day of aspirin for three days) it was “function adequately”. In addition, the R value in assay [3] (81 mg/day of aspirin for three days, blood sampled one hour after oral 40.5 mg, heparin 0.1 U/mL, argatroban 0.31 μg/mL) is 6.4 ± 1.5; in assay [3] (660 mg/day of aspirin for three days, blood sampled one hour after oral 330 mg, heparin 0.1 U/mL, argatroban 0.31 μg/mL), 6.67 ± 1.7.

As for `O=C1CCc2cc(OCCCCc3nnnn3C3CCCCC3)ccc2N1` [Cil, cilostazol], in assay [3] (200 mg/day of Pletaal), the “assessment of efficacy of the administered dose (R value shortened by ADP and collagen or not)” value is “functions adequately”. This compound displayed a R value in assay [3] (200 mg/day of Pletaal for five days, blood sampled one hour after oral 100 mg, heparin 0.04 U/mL, argatroban 0.06 μg/mL) of 14.5 ± 3.7. Further, in assay [3] (Pletaal administered, 0.1 U/mL of heparin and 0.31 μg/mL of argatroban used, R value could not be determined), the “time until the blood begins to coagulate” value is “more than 3 hours”.

For `Cc1c(N(C)CS(=O)(=O)[O-])c(=O)n(-c2ccccc2)n1C.[Na+]` [Sulp, sulpyrine], the “assessment of efficacy of the administered dose (R value shortened by ADP and collagen or not)” value in assay [3] (250 mg of sulpyrine injected intramuscularly) was “functions adequately”. The compound further yielded a R value in assay [3] (blood sampled one hour after intramuscular injection of 250 mg of sulpyrine, heparin 0.1 U/mL, argatroban 0.31 μg/mL) of 6.9 ± 2.1.

Regarding collagen [Col.], in the assay with whole blood (in min (unit assumed)), the “K (time it takes a clot to be formed)” value was 2.5 ± 0.5 and the “R (time it takes for fibrin to be formed)” value is listed as 5.3 ± 1.4. In the assay with whole blood, the “M A (maximum amplitude)” value was 57.9 ± 3.9 and the “R + K” value was 7.8 ± 1.5. Moreover, in the assay with whole blood (listed as collagen), the “K (time it takes a clot to be formed)” value is “no significant difference”, the “R (time it takes for fibrin to be formed)” value is on record as “shortens significantly” and the “R + K” value was “shortens significantly”. In addition, the “change of the R value lengthened by anticoagulant when ADP or collagen is added” value in the assay on blood [1] was “shortens significantly”.

Take heparin: the “A N G (rapidity of clot formation)” value in the assay on blood [2] was 39.1 ± 13.9. In addition, the K with blood [2] is 11.4 ± 6.2; in the assay with blood [2] (listed as heparin) it was “lengthen”. Moreover, the R with blood [2] is 26.4 ± 10.6; with blood [2] (listed as heparin) it was “lengthen”. Moreover, the R value with blood [1] (setting [4]) is 26.4 ± 10.6; in the assay on blood [1] (Comparative Example, blood with no antithrombotic agent administered, listed as heparin), “lengthens”; in the assay on blood [1] (setting [5]), 28.6 ± 9.5; in the assay with blood [1] (setting [6]), 26.4 ± 10.6.

Source of the values: patent US7947505B2, “Method for testing efficacy of antithrombotic agent” (priority 2005, dated 2011).
